# Earlier results in patent US20090143313A1 (priority 2004, published 2009).
# Key:
# tuberculosis = settings: human, in vivo
# [1] = tested on: 5-FU-immune-suppressed animals; settings: in vivo
# [2] = tested on: immunization with sheep red blood cells; settings: in vivo
smiles,measurement,setting,value
"N[C@H](CCC(=O)N[C@@H](Cc1c[nH]c2ccccc12)C(=O)O)C(=O)O [SCV-07, γ-D-glutamyl-L-tryptophan]",Cavity healing and symptoms of tuberculosis,tuberculosis,positive effect
same,Incidence of mycobacteria-negative sputum cultures,tuberculosis,increased
same,Immunostimulatory effect,[1],strong immunostimulatory effect
same,Immunostimulatory effect,[2],strong immunostimulatory effect
same,Expression of Thy-1.2 on bone marrow cells,bone marrow cells,stimulates
same,Con-A-induced interleukin-2 (IL-2) production and IL-2 receptor expression by spleen lymphocytes,spleen lymphocytes,increases
